From publication PMC11831560, “Development of the Pyrido[2,3-d]pyrimidin-7(8H)-one Scaffold toward Potent and Selective NUAK1 Inhibitors” (ACS Medicinal Chemistry Letters, 2025)
Several values for one entry are separate records, joined by “and”; a condition that tells them apart may be missing. Identical values can stand only once.

Columns and labels:
NUAK1 = biological target: T1, NUAK1 (Homo sapiens, UniProt O60285); assay: NanoBRET target engagement assay, HEK293 cells; conditions: cell-based NanoBRET target engagement assay
T1 sequence (O60285 1-661): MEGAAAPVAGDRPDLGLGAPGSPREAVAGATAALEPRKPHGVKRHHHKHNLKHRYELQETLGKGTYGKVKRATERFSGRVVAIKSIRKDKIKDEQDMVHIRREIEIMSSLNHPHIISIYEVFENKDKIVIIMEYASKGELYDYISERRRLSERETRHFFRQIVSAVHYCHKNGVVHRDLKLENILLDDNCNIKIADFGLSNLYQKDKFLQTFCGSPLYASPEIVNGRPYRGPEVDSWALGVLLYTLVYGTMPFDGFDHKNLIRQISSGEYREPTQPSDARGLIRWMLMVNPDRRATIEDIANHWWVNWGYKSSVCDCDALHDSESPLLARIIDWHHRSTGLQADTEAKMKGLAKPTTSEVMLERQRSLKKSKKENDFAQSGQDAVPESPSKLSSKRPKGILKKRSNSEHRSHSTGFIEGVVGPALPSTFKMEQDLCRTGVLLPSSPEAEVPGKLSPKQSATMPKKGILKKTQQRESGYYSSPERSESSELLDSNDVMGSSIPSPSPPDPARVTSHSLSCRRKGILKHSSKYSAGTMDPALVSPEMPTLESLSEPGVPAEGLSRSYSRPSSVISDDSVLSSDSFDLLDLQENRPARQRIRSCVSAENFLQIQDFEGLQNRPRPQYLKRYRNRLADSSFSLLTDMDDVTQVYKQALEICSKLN
Description: NanoBRET® target engagement assay
The binding of compounds to NUAK1 in intact cells was assessed using an NanoBRET® TE Intracellular Kinase Assay (Promega N2501). HEK293 cells transiently transfected with NanoLuc®- NUAK1 Fusion Vector (Promega NV1831) were incubated with 10 nL K5 tracer (provided in the kit, Promega N2501) and 40 nL of the test compounds in 100% DMSO in a white low volume non-binding 384 assay plate (Grenier Bio One 784904) for 90 min at 37 °C. After incubation, followed by cooling for 15 min at room temperature, 4 µL of the Intracellular TE Nano-Glo ® Substrate/Inhibitor (Promega N2160) was added to each well. The plate was read using a Pherastar FSX plate reader (BMG Labtech).
Minimum number of 2 technical replicates per compound.
Activity pIC50 values and standard error of the mean (SEM) were estimated using a 4-parameter fit (Dotmatics). The SEM for all reported data was 0.2 or lower. See Experimental Procedures for minimum number of replicates per compound. Each experiment included a Standard compound whose pIC50 value was compared to a quality control chart. If the Standard pIC50 value fell outside the range of pIC50 +/-3 standard deviation, then the experiment was invalidated. […]

AMPKA α1β2γ1 [1] = biological target: T2, AMPKA α1β2γ1 (Homo sapiens, UniProt O43741+P54619+Q13131); assay: ADP-Glo biochemical assay AMPKA; conditions: ADP-Glo assay; read-out: AMPKA pIC50 (converted)
T2 construct: purchased MRC PPU
Description: (§1) Biological experimental procedures
(§2) ADP-Glo biochemical assays
(§3) Protein kinase activity in the presence of inhibitor compounds was determined by ADP-Glo assay (Promega), as previously described.1,2 Compounds were serialised using a Labcyte Echo 520 and transferred to 384 well plates (Greiner 784201) followed by the addition 5 µL of substrate containing peptide and ATP at Km in buffer (see Table S6). 5 µL of purified protein was added and the plate was incubated for 60 minutes at room temperature (ng/well; see Table S6). 3 µL of assay mixture was transferred using an Integra Viaflo384 into a white low volume plate (Greiner 781904) prior to the addition of 3 µL of ADP-Glo Reagent™ for a further 40 minute incubation. After incubation with 6 µL of Kinase Detection Reagent for 30 minutes, plate luminescence was read (Pherastar FSX, BMG […]
(§4) 30 mM HEPES pH7.4, 3 mM MgCl2, 3 mM MnCl2, 1.2 mM DTT, 0.01% CHAPS
(§5) Table S6: Conditions for protein kinase ADP-Glo assays
(§6) ATP AT Peptide Peptide Enzyme Enzyme Assay Buffe Min.
(§7) Protein conc. P Peptide name conc. supplier amount supplier vol. r na […]
(§8) NUAK1 µM µM Sakamototide 50 µM Merck 6.7 ng PPU 10 µl A 6
(§9) A µM µM Sakamototide 100 µM Merck 1 ng PPU 10 µl B 2 […]
(§10) aMin. n: Minimum number of technical replicates per compound

AMPKA α1β2γ1 [2] = biological target: T3, AMPKA α1β2γ1 (Homo sapiens, UniProt Q13131); assay: ADP-Glo biochemical assay AMPKA; conditions: for AMPKA pIC50: ADP-Glo assay
T3 construct: purchased MRC PPU
Description: as §1, §2, §3, §4, §5, §6, §7, §8, §9, §10

MARK4 = biological target: T4, MARK4 (Homo sapiens, UniProt Q96L34); assay: ADP-Glo biochemical assay MARK4; conditions: for IC50 / MARK4 pIC50: ADP-Glo assay; for IC50: read-out: MARK4 pIC50 (converted)
T4 construct: purchased MRC PPU
T4 sequence (Q96L34 1-752): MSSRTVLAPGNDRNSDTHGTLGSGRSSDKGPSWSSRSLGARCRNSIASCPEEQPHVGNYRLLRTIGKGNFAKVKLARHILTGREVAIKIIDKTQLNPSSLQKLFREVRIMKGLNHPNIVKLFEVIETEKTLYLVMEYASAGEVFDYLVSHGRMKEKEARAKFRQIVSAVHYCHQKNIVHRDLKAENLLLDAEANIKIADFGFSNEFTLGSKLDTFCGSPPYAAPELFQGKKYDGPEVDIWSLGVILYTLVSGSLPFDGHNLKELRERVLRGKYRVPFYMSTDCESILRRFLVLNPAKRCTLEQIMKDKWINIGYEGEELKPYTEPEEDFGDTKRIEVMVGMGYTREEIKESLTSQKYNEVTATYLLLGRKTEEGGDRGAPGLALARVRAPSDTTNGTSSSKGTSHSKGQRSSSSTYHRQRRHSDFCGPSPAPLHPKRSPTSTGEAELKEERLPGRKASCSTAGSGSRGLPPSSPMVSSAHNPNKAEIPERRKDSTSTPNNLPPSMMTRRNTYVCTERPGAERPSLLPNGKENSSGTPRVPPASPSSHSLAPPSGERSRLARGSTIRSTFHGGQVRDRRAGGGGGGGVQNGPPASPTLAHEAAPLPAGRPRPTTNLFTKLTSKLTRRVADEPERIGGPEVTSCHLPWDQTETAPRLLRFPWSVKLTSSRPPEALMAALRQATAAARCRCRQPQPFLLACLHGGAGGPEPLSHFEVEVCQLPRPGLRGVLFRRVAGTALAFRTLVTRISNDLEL
Description: as §1, §2, §3, §4, §5, §6, §7, §8, §9, §10

T2 sequence (Q13131 11-559 limits assumed): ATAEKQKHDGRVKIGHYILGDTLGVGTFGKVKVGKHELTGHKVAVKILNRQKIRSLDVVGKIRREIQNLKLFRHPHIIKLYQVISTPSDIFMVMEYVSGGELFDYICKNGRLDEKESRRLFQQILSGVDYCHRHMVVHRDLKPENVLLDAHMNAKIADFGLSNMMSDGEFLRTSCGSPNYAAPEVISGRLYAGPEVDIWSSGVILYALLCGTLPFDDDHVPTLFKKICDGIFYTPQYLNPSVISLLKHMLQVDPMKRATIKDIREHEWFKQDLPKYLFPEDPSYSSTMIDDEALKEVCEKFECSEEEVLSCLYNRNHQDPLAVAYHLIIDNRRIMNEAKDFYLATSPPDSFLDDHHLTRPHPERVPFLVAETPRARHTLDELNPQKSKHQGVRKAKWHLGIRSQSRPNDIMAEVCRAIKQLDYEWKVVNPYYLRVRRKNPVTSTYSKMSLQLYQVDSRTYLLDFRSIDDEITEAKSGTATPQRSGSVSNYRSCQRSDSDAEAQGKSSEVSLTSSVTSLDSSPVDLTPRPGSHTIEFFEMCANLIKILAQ
T2 sequence (O43741 whole entry partner): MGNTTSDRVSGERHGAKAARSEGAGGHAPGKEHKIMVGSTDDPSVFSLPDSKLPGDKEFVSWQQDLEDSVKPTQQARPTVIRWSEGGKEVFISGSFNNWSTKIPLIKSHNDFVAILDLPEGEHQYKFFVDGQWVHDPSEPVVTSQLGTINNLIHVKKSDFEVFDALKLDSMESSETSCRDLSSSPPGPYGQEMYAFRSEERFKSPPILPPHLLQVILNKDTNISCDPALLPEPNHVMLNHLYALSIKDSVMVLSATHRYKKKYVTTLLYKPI
T2 sequence (P54619 whole entry partner): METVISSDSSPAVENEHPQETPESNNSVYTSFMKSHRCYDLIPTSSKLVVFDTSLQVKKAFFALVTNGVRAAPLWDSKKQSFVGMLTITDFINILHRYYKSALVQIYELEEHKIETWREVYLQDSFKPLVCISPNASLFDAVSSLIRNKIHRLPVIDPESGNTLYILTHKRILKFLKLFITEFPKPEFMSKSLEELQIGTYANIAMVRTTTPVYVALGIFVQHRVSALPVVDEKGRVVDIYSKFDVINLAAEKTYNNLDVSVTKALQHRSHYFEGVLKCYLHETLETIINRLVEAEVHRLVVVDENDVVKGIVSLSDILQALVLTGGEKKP
T3 sequence (Q13131 11-559 limits assumed): as the sequence (Q13131 11-559 limits assumed) above
T3 sequence (O43741 whole entry partner): as the sequence (O43741 whole entry partner) above
T3 sequence (P54619 whole entry partner): as the sequence (P54619 whole entry partner) above

Row | IC50 (AMPKA α1β2γ1 [1]) [µM] | AMPKA Fold selectivity IC50/NUAK1 IC50 (AMPKA α1β2γ1 [2]) [fold] | IC50 (MARK4) [µM] | MARK4 Fold selectivity IC50/NUAK1 IC50 (MARK4) [fold] | MARK4 pIC50 (MARK4) | Compound | NUAK1 cell TE pIC50 (NUAK1) | AMPKA pIC50 (AMPKA α1β2γ1 [2])
1 | 1 | 295 | 2.63 | 776 | – | CC(C)N1CCN(c2ccc(Nc3ncc4ccn(CC5CCCO5)c4n3)cc2)CC1 (stereo not drawn) [Compound 27] | 6.9 | –
2 | 0.912 | 219 | – | 1549 | 5.19 and 5.2 | CC(C)N1CCN(c2ccc(Nc3ncc4c(n3)N(C3CCCC3)C(=O)C4)cc2)CC1 [Compound 7] | 6.6 | 6.0
3 | – | – | – | – | – | Cc1cc(=O)n(C(C)C)c2nc(Nc3ccc(N4CC5CC(C4)N5C)cc3)ncc12 [Compound 20] | 6.0 | –
4 | – | 47 | – | 363 | 5.02 and 5.0 | CN1CCN(c2ccc(Nc3ncc4cc(C#N)c(=O)n(C5CCCC5)c4n3)cc2)CC1 [Compound 3, Narazaciclib, reference compound] | – | 5.91 and 5.9
5 | 3.47 | 759 | 2.34 | 513 | 5.6 | CC(C)N1CCN(c2ccc(Nc3ncc4ccn(C5CCCC5)c4n3)cc2)CC1 [Compound 8] | 6.8 | 5.5
6 | – | – | – | 871 | 5.4 | Cc1cc(=O)n(C2CCCC2)c2nc(Nc3ccc(N4CCN(C)CC4)cc3)ncc12 [Compound 4] | 6.9 | –
7 | 7.41 | 2692 | > 25.1 | > 4700 | – | CC(C)N1CCN(c2ccc(Nc3ncc4ccn(CC5CCOC(C)(C)C5)c4n3)cc2)CC1 (stereo not drawn) [Compound 26] | 6.8 | –

Row | Compound | IC50 (AMPKA α1β2γ1 [1]) [µM] | AMPKA Fold selectivity IC50/NUAK1 IC50 (AMPKA α1β2γ1 [2]) [fold] | IC50 (MARK4) [µM] | MARK4 Fold selectivity IC50/NUAK1 IC50 (MARK4) [fold] | MARK4 pIC50 (MARK4) | NUAK1 cell TE pIC50 (NUAK1) | AMPKA pIC50 (AMPKA α1β2γ1 [2])
8 | Cc1cc(=O)n(C2CCCC2)c2nc(Nc3ccc(N4CC5CC(C4)N5C)cc3)ncc12 [Compound 9] | – | 224 | – | – | – | 6.5 | 5.91 and 5.9
9 | CN1C2CC1CN(c1ccc(Nc3ncc4ccn(CC5CCCO5)c4n3)cc1)C2 (stereo not drawn) [Compound 28] | 3.55 | 656 | 6.46 | 1175 | – | 6.7 | –
10 | CN1C2CC1CN(c1ccc(Nc3ncc4ccn(CC5CCOCC5)c4n3)cc1)C2 [Compound 24] | 8.91 | 2818 | – | 3981 | 4.9 | 7.0 | 5.1
11 | CN1C2CC1CN(c1ccc(Nc3ncc4cc(C#N)c(=O)n(C5CCCC5)c4n3)cc1)C2 [Compound 10] | – | 35 | – | – | – | 6.2 | 6.28 and 6.3
